Tests used:
[1] = target: Death-associated protein kinase 3 (Homo sapiens) (UniProt O43293); assay: Selectivity interaction (KinomeScan (DiscoverX)) EUB0001049a DAPK3; conditions: at 1 µM
[2] = target: T1, Serine/threonine-protein kinase RIO3 (Homo sapiens) (UniProt O14730); assay: Selectivity interaction (KinomeScan (DiscoverX)) EUB0001049a RIOK3; conditions: at 1 µM
T1 sequence (whole entry): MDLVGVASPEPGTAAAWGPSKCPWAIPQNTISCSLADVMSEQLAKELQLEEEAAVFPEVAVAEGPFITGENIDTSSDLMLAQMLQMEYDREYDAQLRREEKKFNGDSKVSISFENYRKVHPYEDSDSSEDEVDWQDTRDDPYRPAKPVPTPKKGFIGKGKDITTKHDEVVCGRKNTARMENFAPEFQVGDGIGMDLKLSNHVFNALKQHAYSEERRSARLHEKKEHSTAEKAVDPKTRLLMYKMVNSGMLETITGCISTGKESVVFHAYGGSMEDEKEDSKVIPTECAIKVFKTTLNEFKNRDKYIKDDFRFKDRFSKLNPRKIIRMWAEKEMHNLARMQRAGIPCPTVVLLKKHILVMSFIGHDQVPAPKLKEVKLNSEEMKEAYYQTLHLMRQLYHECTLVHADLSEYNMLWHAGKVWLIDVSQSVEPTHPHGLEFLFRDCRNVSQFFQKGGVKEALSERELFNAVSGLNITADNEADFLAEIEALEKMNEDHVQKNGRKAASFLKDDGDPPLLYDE

[3] = target: Maternal embryonic leucine zipper kinase (Homo sapiens) (UniProt Q14680); assay: Selectivity interaction (KinomeScan (DiscoverX)) EUB0000666a MELK; conditions: at 10 µM
[4] = target: Ephrin type-A receptor 2 (Homo sapiens) (UniProt P29317); assay: Selectivity interaction (KinomeScan (DiscoverX)) EUB0000666a EPHA2; conditions: at 10 µM
[5] = target: Ribosomal protein S6 kinase alpha-1 (Homo sapiens, UniProt Q15418); assay: Selectivity interaction (KinomeScan (DiscoverX)) EUB0000229b RPS6KA1; conditions: at 10 µM
[6] = target: T2, Activin receptor type-1 (Homo sapiens) (UniProt Q04771); assay: Selectivity interaction (KinomeScan (DiscoverX)) EUB0001079a ACVR1; conditions: at 1 µM
T2 sequence (whole entry): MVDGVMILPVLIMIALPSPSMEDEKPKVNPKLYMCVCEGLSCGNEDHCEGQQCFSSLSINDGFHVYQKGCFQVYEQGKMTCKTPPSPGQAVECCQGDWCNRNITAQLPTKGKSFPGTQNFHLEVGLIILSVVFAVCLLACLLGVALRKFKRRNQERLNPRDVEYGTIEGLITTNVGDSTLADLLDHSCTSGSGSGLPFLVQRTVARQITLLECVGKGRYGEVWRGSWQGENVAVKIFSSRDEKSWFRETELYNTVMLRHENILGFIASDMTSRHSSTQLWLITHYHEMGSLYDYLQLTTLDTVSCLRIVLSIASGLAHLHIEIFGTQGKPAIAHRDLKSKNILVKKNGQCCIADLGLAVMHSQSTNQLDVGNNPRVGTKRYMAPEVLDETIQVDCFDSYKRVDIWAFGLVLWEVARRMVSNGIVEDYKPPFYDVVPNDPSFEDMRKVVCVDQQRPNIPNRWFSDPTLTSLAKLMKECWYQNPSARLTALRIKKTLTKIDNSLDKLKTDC

[7] = target: T3, Serine/threonine-protein kinase ULK3 (Homo sapiens) (UniProt Q6PHR2); assay: Selectivity interaction (Kinase panel (DSF assay)) EUB0001559a ULK3
T3 sequence (whole entry): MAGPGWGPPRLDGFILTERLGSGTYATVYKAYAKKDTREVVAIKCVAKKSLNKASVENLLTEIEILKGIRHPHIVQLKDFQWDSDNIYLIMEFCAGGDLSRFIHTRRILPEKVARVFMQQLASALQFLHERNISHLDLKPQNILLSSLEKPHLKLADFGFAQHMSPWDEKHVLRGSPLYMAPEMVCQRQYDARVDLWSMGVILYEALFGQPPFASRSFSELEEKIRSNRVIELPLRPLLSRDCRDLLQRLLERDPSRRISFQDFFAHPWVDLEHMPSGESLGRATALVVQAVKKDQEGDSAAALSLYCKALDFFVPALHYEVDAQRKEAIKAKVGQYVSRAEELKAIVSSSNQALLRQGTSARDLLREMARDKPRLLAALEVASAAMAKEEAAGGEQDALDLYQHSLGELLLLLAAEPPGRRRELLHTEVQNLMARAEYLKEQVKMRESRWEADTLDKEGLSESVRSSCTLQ

[8] = target: Serine/threonine-protein kinase MARK2 (Homo sapiens) (UniProt Q7KZI7); assay: Selectivity interaction (ActivX KiNativ screen (kinase selectivity in THP-1 cell lysates)) EUB0000639a MARK2; assay type: subcellular; conditions: lysate
[9] = target: Casein kinase II subunit alpha (Homo sapiens, UniProt P68400); assay: Selectivity interaction (Kinase screening (Upstate/Millipore)) EUB0000604a CSNK2A1
[10] = target: CDK4/Cyclin D3 (Homo sapiens) (UniProt P11802+P30281); assay: (§1) Selectivity interaction (KinomeScan (DiscoverX)) EUB0000045b CDK4; assay type: protein-complex assay
[11] = target: Cyclin-dependent kinase 4/cyclin D1 (Homo sapiens) (UniProt P11802+P24385); assay: as §1; assay type: protein-complex assay
[12] = target: Protein-tyrosine kinase 2-beta (Homo sapiens) (UniProt Q14289); conditions: at 10 µM
[13] = target: Tyrosine-protein kinase Blk (Homo sapiens) (UniProt P51451); conditions: at 10 µM
[14] = target: Tyrosine-protein kinase ABL1 (Homo sapiens, UniProt P00519); assay: Selectivity interaction (KinomeScan (DiscoverX)) EUB0000655a ABL1; conditions: at 10 µM
[15] = target: T4, Mitogen-activated protein kinase 13 (Homo sapiens) (UniProt O15264); assay: Selectivity interaction (KinomeScan (DiscoverX)) EUB0000607a MAPK13; conditions: at 10 µM
T4 sequence (whole entry): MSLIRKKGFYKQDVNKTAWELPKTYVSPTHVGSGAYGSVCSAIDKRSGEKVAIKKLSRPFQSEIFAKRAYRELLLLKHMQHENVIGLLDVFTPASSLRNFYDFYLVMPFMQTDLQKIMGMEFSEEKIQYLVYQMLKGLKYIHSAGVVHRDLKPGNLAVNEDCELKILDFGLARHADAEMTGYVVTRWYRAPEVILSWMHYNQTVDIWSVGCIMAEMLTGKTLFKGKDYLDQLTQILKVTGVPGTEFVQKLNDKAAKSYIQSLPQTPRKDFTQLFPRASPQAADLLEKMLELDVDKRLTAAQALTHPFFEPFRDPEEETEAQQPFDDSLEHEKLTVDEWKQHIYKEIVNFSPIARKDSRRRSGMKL

[16] = target: Fibroblast growth factor receptor 1 (Homo sapiens, UniProt P11362); assay: Selectivity interaction (Kinase panel (Z-LYTE Assay)) EUB0001632a FGFR1; conditions: at 10 µM
Fibroblast growth factor receptor 1, sequence (P11362 22-822 limits assumed): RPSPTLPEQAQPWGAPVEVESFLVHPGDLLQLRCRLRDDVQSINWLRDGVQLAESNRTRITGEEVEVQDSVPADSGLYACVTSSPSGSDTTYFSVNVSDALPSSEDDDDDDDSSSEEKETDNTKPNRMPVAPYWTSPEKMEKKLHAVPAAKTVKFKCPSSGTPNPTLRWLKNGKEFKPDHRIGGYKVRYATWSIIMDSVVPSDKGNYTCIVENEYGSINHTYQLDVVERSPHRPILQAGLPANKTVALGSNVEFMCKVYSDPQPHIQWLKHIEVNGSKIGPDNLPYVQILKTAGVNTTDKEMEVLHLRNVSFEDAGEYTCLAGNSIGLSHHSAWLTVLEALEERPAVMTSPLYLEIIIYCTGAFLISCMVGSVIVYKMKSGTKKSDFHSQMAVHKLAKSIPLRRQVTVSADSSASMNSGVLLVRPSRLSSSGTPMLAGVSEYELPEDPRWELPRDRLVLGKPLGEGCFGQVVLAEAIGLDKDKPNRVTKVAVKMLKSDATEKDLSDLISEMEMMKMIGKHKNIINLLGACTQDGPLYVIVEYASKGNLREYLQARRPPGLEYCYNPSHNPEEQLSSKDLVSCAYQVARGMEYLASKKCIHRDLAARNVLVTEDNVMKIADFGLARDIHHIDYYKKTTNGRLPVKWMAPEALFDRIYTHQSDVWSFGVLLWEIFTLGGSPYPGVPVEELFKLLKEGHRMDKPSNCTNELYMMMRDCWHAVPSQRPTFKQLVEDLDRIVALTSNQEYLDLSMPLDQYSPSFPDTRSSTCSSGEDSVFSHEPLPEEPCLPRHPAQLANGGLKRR

Serine/threonine-protein kinase MARK2 (Homo sapiens), sequence (Q7KZI7 whole entry): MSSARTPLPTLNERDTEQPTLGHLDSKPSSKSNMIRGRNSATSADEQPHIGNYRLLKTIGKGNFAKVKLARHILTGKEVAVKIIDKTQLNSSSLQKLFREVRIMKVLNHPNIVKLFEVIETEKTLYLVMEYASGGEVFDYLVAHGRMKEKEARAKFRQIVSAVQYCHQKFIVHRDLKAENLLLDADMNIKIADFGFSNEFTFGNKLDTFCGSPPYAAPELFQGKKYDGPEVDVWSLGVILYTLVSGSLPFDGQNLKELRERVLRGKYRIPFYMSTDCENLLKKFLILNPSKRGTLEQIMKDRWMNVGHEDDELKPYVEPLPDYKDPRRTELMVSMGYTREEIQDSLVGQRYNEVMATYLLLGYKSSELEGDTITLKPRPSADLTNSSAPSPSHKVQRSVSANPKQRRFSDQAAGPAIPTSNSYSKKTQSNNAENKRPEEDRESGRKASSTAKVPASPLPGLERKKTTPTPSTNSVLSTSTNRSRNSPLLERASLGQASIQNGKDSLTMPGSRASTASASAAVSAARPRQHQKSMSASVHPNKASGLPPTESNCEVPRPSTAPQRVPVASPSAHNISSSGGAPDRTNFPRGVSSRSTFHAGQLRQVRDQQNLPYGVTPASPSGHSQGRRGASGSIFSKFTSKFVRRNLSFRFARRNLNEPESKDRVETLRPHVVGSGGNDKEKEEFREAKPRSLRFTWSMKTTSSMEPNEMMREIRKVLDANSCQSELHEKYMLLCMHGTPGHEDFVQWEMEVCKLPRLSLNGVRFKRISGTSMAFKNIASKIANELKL
Protein-tyrosine kinase 2-beta (Homo sapiens), sequence (Q14289 whole entry, looked up): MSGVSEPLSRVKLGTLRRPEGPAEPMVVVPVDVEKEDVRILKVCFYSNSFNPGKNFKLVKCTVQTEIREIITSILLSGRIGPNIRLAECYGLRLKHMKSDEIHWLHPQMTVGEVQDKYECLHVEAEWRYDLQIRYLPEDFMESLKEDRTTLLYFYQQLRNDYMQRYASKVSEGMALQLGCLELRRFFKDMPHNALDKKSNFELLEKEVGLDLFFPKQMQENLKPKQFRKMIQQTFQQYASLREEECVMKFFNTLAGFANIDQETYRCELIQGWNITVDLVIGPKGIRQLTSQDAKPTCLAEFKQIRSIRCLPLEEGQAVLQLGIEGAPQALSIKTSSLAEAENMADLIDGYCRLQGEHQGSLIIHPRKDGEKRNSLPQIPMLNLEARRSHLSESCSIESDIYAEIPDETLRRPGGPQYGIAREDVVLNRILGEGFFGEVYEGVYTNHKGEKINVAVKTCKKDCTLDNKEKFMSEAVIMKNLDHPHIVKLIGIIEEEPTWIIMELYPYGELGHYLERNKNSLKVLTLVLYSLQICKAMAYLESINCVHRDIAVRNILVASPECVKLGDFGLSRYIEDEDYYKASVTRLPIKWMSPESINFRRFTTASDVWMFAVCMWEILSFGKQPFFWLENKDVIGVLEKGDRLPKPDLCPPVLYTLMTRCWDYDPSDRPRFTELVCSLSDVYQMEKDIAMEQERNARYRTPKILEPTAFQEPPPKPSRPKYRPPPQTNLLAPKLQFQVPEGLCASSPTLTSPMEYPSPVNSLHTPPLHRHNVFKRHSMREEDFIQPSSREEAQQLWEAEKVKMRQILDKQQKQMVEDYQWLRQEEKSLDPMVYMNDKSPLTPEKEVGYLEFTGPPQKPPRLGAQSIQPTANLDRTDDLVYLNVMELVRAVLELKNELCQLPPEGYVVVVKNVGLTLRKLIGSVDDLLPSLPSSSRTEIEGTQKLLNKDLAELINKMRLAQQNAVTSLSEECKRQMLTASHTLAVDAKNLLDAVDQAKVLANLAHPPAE
Ribosomal protein S6 kinase alpha-1, sequence (Q15418 whole entry): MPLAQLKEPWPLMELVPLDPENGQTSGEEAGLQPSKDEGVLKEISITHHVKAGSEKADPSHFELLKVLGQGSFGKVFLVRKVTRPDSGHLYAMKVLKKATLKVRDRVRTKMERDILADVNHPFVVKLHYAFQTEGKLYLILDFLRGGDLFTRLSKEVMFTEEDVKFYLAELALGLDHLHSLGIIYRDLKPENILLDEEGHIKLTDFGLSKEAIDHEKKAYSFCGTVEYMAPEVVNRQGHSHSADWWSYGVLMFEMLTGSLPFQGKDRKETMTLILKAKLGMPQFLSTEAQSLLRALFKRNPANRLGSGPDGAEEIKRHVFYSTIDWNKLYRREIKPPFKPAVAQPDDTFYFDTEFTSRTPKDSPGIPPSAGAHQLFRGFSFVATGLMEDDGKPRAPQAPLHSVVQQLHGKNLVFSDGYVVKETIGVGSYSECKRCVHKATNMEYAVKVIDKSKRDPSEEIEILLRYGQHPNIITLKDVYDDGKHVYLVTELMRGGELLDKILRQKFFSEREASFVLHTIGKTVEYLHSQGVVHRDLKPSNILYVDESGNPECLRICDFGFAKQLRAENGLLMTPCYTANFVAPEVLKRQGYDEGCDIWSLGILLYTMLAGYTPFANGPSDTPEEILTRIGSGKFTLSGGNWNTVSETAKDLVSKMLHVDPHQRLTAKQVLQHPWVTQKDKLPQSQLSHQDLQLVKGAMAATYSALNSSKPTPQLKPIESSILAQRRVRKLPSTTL
Maternal embryonic leucine zipper kinase (Homo sapiens), sequence (Q14680 whole entry, looked up): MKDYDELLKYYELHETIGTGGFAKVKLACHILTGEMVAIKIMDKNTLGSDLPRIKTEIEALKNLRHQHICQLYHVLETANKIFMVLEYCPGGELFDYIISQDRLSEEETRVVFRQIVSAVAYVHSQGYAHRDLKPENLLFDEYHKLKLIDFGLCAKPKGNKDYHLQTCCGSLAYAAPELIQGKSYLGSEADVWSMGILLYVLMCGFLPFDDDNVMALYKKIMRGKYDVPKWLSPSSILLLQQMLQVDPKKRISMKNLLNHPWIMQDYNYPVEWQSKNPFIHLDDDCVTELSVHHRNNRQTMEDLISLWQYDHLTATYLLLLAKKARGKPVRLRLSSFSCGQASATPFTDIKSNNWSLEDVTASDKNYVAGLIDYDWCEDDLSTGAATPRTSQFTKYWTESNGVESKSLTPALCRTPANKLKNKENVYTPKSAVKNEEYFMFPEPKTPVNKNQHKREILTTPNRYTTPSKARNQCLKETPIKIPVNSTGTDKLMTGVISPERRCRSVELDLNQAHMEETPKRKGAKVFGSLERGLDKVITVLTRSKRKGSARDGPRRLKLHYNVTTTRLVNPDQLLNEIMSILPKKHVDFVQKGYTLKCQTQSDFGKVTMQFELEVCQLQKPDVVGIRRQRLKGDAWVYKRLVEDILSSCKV
Ephrin type-A receptor 2 (Homo sapiens), sequence (P29317 whole entry): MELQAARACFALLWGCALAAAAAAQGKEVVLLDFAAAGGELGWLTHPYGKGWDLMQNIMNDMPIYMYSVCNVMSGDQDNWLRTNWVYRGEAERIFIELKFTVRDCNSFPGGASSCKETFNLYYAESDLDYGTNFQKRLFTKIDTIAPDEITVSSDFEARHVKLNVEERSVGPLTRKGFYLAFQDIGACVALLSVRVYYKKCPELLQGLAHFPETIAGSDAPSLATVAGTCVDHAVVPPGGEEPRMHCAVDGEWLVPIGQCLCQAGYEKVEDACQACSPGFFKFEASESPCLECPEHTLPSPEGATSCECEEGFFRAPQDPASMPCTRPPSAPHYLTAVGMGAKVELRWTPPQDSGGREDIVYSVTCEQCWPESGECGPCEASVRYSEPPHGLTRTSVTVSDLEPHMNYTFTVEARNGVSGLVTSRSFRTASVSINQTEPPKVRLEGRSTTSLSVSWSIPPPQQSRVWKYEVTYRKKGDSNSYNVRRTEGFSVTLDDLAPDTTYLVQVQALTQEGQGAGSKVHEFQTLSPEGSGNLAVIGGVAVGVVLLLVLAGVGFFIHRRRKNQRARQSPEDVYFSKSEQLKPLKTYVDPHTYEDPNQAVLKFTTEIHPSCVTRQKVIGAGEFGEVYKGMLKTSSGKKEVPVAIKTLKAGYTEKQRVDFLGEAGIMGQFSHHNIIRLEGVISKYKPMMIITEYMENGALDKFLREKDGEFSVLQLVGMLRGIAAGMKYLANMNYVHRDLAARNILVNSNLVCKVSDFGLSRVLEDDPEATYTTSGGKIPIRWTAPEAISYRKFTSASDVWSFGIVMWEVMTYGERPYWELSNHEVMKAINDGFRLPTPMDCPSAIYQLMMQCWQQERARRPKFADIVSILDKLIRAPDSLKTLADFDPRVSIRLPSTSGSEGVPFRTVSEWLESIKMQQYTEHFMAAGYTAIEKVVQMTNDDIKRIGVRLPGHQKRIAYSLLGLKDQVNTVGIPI

## COc1cc(Nc2nc(C)cc(-c3cnn4nc(OC)ccc34)n2)cc(C(F)(F)F)c1
[1]
  % of control: 100%
[2]
  % of control: 86%

## O=C(NOC[C@H](O)CO)c1ccc(F)c(F)c1Nc1ccc(I)cc1F
[3]
  % of control: 80%
[4]
  % of control: 88%

## COc1cc(N(C)c2ccnc3ccc(C(F)(F)F)cc23)cc(OC)c1OC
[5]
  % binding: 93%

## Nc1cnc(N2CCc3cc(S(=O)(=O)Nc4c(F)cc(Cl)cc4F)cc(N4CCCC4=O)c32)nc1 [TP-020n]
[6]
  % of control: 100%

## CN(C(=O)c1cnn2cccnc12)c1cc2c(cc1N1CCOCC1)C(=O)N(C[C@@H](F)C(C)(C)O)C2
[7]
  dTM: -0.5 K

## CC[C@@H]1[C@H](F)C(=O)N[C@@H]1COc1nccc2cc(C(N)=O)c(OC)cc12 [ZIMLOVISERTIB]
[8]; at 0.01 µM
  % of inhibition: -8%
[8]; at 0.04 µM
  % of inhibition: 6.9%
[8]; at 0.2 µM
  % of inhibition: 9.9%
[8]; at 1 µM
  % of inhibition: 30%
[8]; at 5 µM
  % of inhibition: 56.3%

## Cc1cnc(Nc2ccc(F)cc2Cl)nc1-c1c[nH]c(C(=O)N[C@H](CO)c2cccc(Cl)c2)c1
[9]
  % of inhibition: 0%

## C=CC(=O)Nc1cc(-n2c(=O)ccc3cnc4ccc(-c5ccc(NS(C)(=O)=O)cc5)cc4c32)ccc1C
[10]; at 1 µM
  % of control: 100%
[10]; at 10 µM
  % of control: 93%
[11]; at 1 µM
  % of control: 100%
[11]; at 10 µM
  % of control: 100%

## Cc1cc([C@@H](C)Nc2ccccc2C(=O)O)c2nc(N3CCOCC3)cc(=O)n2c1 [AZD-6482]
[12]
  % of control: 100%
[13]
  % of control: 99%

## CN(C)CCOc1ccc(-c2nc(-c3ccncc3)c(-c3ccc4c(c3)CC/C4=N\O)[nH]2)cc1
[14]
  % of control: 6%

## CNC(=O)Nc1ccc(-c2nc(N3CC4CCC(C3)O4)c3cnn(C4CCC5(CC4)OCCO5)c3n2)cc1
[15]
  % of control: 16%

## Cn1cc(-n2cnc3c(NCc4nc5cc(Cl)c(Cl)cc5[nH]4)nc(N4CCOCC4)nc32)cn1
[16]
  % of control: 30.2%
